Like-named read-outs stand apart in the source and are kept apart here.
Tested on: AGS cells (KRAS^G12D)
Test: Detection of cell proliferation in vitro by MTT/MTS method (cell activity experiment)
Assay type: cell-based
Details: AGS cells, MTT/MTS, 3 days of drug treatment, read-out: AGS IC50
Procedure, shortened: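 KRAS G12D AGS cells seeded at 1000 per well, compound added 24 h later, 0.5% final DMSO. Viability read after 3 days of treatment by MTT (solubilised in DMSO) or MTS, 4 h, absorbance 490 nm. IC50 from dose–response curves versus DMSO control.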

IC50 | Compound | IC50 (Homo sapiens, AGS, 72 h)
 | C#Cc1c(F)ccc2cc(O)cc(-c3ccc4c(N5CC6CCCNC6C5)nc(OC[C@@]56CCCN5C[C@H](F)C6)nc4c3F)c12 (stereo partly drawn) [Example 112, 5-ethynyl-6-fluoro-4-(8-fluoro-2-(((2R,7aS)-2-fluorotetrahydro-1H-pyrrolizin-7a(5H)-yl)methoxy)-4-(octahydro-6H-pyrrolo[3,4-b]pyridin-6-yl)quinazolin-7-yl) naphthalen-2-ol] | > 2500 nM
> 2500 nM | C#Cc1c(F)ccc2cc(O)cc(-c3ccc4c(N5C[C@H]6CC[C@@H](C5)[C@@H]6N)nc(OC[C@@]56CCCN5C[C@H](F)C6)nc4c3F)c12 [Example 128, 4-(4-((1R,5S,8R)-8-amino-3-azabicyclo [3.2.1]octan-3-yl)-8-fluoro-2-(((2R,7aS)-2-fluorotetrahydro-1H-pyrrolizin-7a(5H)-yl)methoxy)quinazolin-7-yl)-5-ethynyl-6-fluoronaphthalen-2-ol] | 
 | C#Cc1c(F)ccc2cc(O)cc(-c3ccc4c(N5CC(C(C)N)C5)nc(OC[C@@]56CCCN5C[C@H](F)C6)nc4c3F)c12 (stereo partly drawn) [Example 213, 4-(4-(3-(1-aminoethyl)azetidin-1-yl)-8-fluoro-2-(((2R,7aS)-2-fluorotetrahydro-1H-pyrrolizin-7a(5H)-yl)methoxy)quinazolin-7-yl)-5-ethynyl-6-fluoronaphthalen-2-ol] | > 2500 nM
 | Oc1cc2c(c(-c3ncc4c(N5C[C@H]6CC[C@@H](C5)N6)nc(OC[C@@]56CCCN5C[C@H](F)C6)nc4c3F)c1)C(CC(F)F)CC2 (stereo partly drawn) [Example 258, 7-(4-((1R,5S)-3,8-diazabicyclo[3.2.1]octan-3-yl)-8-fluoro-2-(((2R,7aS)-2-fluorotetrahydro-1H-pyrrolizin-7a(5H)-yl)methoxy)pyrido[4,3-d]pyrimidin-7-yl)-1-(2,2-difluoroethyl)-2,3-dihydro-1H-inden-5-ol] | > 10000 nM
 | C#Cc1c(F)ccc2cc(O)cc(-c3ccc4c(N5CC6CC(C5)N6)nc(OC[C@@]56CCCN5C[C@H](F)C6)nc4c3F)c12 [Example 107, 4-(4-(3,6-diazabicyclo [3.1.1]heptan-3-yl)-8-fluoro-2-(((2R,7aS)-2-fluorotetrahydro-1H-pyrrolizin-7a(5H)-yl)methoxy)quinazolin-7-yl)-5-ethynyl-6-fluoronaphthalen-2-ol] | 105 nM
 | CCC1C(=O)Cc2cc(O)cc(-c3ncc4c(N5C[C@H]6CC[C@@H](C5)N6)nc(OC[C@@]56CCCN5C[C@H](F)C6)nc4c3F)c21 (stereo partly drawn) [Example 263, 7-(4-((1R,5S)-3,8-diazabicyclo[3.2.1]octan-3-yl)-8-fluoro-2-(((2R,7aS)-2-fluorotetrahydro-1H-pyrrolizin-7a(5H)-yl)methoxy)pyrido[4,3-d]pyrimidin-7-yl)-1-ethyl-5-hydroxy-1,3-dihydro-2H-inden-2-one] | > 10000 nM
 | Oc1cc(-c2c(-c3cn[nH]c3)cc3c(N4C[C@H]5CC[C@@H](C4)N5)nc(OC[C@@]45CCCN4C[C@H](F)C5)nc3c2F)c2ccccc2c1 [Example 377, 4-(4-((1R,5S)-3,8-diazabicyclo[3.2.1]octan-3-yl)-8-fluoro-2-(((2R,7aS)-2-fluorotetrahydro-1H-pyrrolizin-7a(5H)-yl)methoxy)-6-(1H-pyrazol-4-yl)quinazolin-7-yl)naphthalen-2-ol] | 120 nM
 | C#Cc1c(F)ccc2cc(O)cc(-c3ncc4c(N5CC6CCC(C5)C6S(=O)(=O)C(F)(F)F)nc(OC[C@@]56CCCN5C[C@H](F)C6)nc4c3F)c12 (stereo partly drawn) [Example 67, 5-ethynyl-6-fluoro-4-(8-fluoro-2-(((2R,7aS)-2-fluorotetrahydro-1H-pyrrolizin-7a(5H)-yl)methoxy)-4-((1R,5S, 8R)-8-((trifluoromethyl)sulfonyl)-3-azabicyclo[3.2.1]octan-3-yl)pyrido[4,3-d]pyrimidin-7-yl)naphthalen-2-ol] | > 10000 nM
 | C#Cc1c(F)ccc2cc(O)cc(-c3ncc4c(N(CCNC)C5CC5)nc(OC[C@@]56CCCN5C[C@H](F)C6)nc4c3F)c12 [Example 219, 4-(4-(cyclopropyl(2-(methyl-amino)ethyl)amino)-8-fluoro-2-(((2R,7aS)-2-fluorotetrahydro-1H-pyrrolizin-7a(5H)-yl)methoxy)pyrido[4,3-d]pyrimidin-7-yl)-5-ethynyl-6-fluoronaphthalen-2-ol] | > 2500 nM
 | C#Cc1c(F)ccc2cc(O)cc(-c3ncc4c(N5C[C@H]6CC[C@@H](C5)C6(F)F)nc(OC[C@@]56CCCN5C[C@H](F)C6)nc4c3F)c12 [Example 30, 4-(4-((1R,5S)-8,8-difluoro-3-azabicyclo[3.2.1]octan-3-yl)-8-fluoro-2-(((2R,7aS)-2-fluorotetrahydro-1H-pyrrolizin-7a(5H)-yl)methoxy)pyrido[4,3-d]pyrimidin-7-yl)-5-ethynyl-6-fluoronaphthalen-2-ol] | > 2500 nM
 | CC1CCCc2cc(O)cc(-c3c(F)c4nc(OC[C@@]56CCCN5C[C@H](F)C6)nc(N5C[C@H]6CC[C@@H](C5)N6)c4c4cncn34)c21 (stereo partly drawn) [Example 417, 4-(1-((1R,5S)-3,8-diazabicyclo[3.2.1]octan-3-yl)-5-fluoro-3-(((2R,7aS)-2-fluorotetrahydro-1H-pyrrolizin-7a(5H)-yl)methoxy)imidazo[1′,5′:1,2]pyrido[4,3-d]pyrimidin-6-yl)-5-methyl-5,6,7,8-tetrahydronaphthalen-2-ol] | 35 nM
 | Oc1cc2c(c(-c3ncc4c(N5C[C@H]6CC[C@@H](C5)N6)nc(OC[C@@]56CCCN5C[C@H](F)C6)nc4c3F)c1)C(C(F)F)CCC2 (stereo partly drawn) [Example 261, 4-(4-((1R,5S)-3,8-diazabicyclo[3.2.1]octan-3-yl)-8-fluoro-2-(((2R,7aS)-2-fluorotetrahydro-1H-pyrrolizin-7a(5H)-yl)methoxy)pyrido[4,3-d]pyrimidin-7-yl)-5-(difluoromethyl)-5,6,7,8-tetrahydronaphthalen-2-ol] | 1930 nM
 | CCC1c2c(C3=C(F)c4nc(OC[C@@]56CCCN5C[C@H](F)C6)nc(N5C[C@H]6CC[C@@H](C5)N6)c4C4=NCCN43)cc(O)cc2C2CC21 (stereo partly drawn) [Example 409, 5-(10-((1R,5S)-3,8-diazabicyclo[3.2.1]octan-3-yl)-6-fluoro-8-(((2R,7aS)-2-fluorotetrahydro-1H-pyrrolizin-7a(5H)-yl)methoxy)-2,3-dihydroimidazo[1′,2′:1,2]pyrido[4,3-d]pyrimidin-5-yl)-6-ethyl-1,1a,6,6a-tetrahydrocyclopropa[a]inden-3-ol] | 45 nM
 | Cc1cc(N)nc(-c2ncc3c(N4C[C@H]5CC[C@@H](C4)N5)nc(OCC4(CN5CCCC5)CC4)nc3c2F)c1C(F)(F)F [Example 8, 6-(4-((1R,5S)-3,8-diazabicyclo[3.2.1]octan-3-yl)-8-fluoro-2-((1-(pyrrolidin-1-ylmethyl)cyclopropyl)methoxy)pyrido[4,3-d]pyrimidin-7-yl)-4-methyl-5-(trifluoromethyl) pyridin-2-amine] | > 1000 nM
 | Oc1cc2c(c(-c3c4c(c5c(N6C[C@H]7CC[C@@H](C6)N7)nc(OC[C@@]67CCCN6C[C@H](F)C7)nc5c3F)OCO4)c1)CCCC2 [Example 390, 4-(9-((1R,5S)-3,8-diazabicyclo[3.2.1]octan-3-yl)-5-fluoro-7-(((2R,7aS)-2-fluorotetrahydro-1H-pyrrolizin-7a(5H)-yl)methoxy)-[1,3]dioxolo[4,5-f]quinazolin-4-yl)-5,6,7,8-tetrahydronaphthalen-2-ol] | 150 nM
 | CCc1c(F)ccc2cc(O)cc(-c3ccc4c(N5C[C@H]6CC[C@@H](C5)N6)nc(OC[C@@]56CCCN5C[C@H](F)C6)nc4n3)c12 [Example 141, 4-(4-((1R,5S)-3,8-diazabicyclo[3.2.1]octan-3-yl)-2-(((2R,7aS)-2-fluorotetrahydro-1H-pyrrolizin-7a(5H)-yl)methoxy)pyrido[2,3-d]pyrimidin-7-yl)-5-ethyl-6-fluoronaphthalen-2-ol] | > 2500 nM
 | C#CC1CCCc2cc(O)cc(-c3ncc4c(N5C[C@H]6CC[C@@H](C5)N6)nc(OC[C@@]56CCCN5C[C@H](F)C6)nc4c3F)c21 (stereo partly drawn) [Example 248, 4-(4-((1R,5S)-3,8-diazabicyclo[3.2.1]octan-3-yl)-8-fluoro-2-(((2R,7aS)-2-fluorotetrahydro-1H-pyrrolizin-7a(5H)-yl)methoxy)pyrido[4,3-d]pyrimidin-7-yl)-5-ethynyl-5,6,7,8-tetrahydronaphthalen-2-ol] | 6.7 nM
 | Oc1cc(-c2ncc3c(N4C[C@H]5CC[C@@H](C4)S5)nc(OC[C@@]45CCCN4C[C@H](F)C5)nc3c2F)c2c(F)c(F)ccc2c1 [Example 27, 4-(4-((1R,5S)-8-thia-3-azabicyclo[3.2.1]octan-3-yl)-8-fluoro-2-(((2R,7aS)-2-fluorotetrahydro-1H-pyrrolizin-7a(5H)-yl)methoxy)pyrido[4,3-d]pyrimidin-7-yl)-5,6-difluoronaphthalen-2-ol] | 295 nM
 | Oc1cc(-c2ncc3c(C4C[C@H]5CC[C@@H](C4)N5)nc(OC[C@@]45CCCN4C[C@H](F)C5)nc3c2F)c2c(F)cccc2c1 (stereo partly drawn) [Example 82, 4-(4-((1R,5S)-8-azabicyclo[3.2.1]octan-3-yl)-8-fluoro-2-(((2R,7aS)-2-fluorotetrahydro-1H-pyrrolizin-7a(5H)-yl)methoxy)pyrido [4,3-d]pyrimidin-7-yl)-5-fluoronaphthalen-2-ol] | > 2500 nM
 | C#Cc1c(F)ccc2cc(O)cc(-c3ccc4c(N5C[C@H]6CC[C@@H](C5)N6)nc(OC[C@@]56CCCN5C[C@H](F)C6)nc4c3)c12 [Example 148, 4-(4-((1R,5S)-3,8-diazabicyclo[3.2.1]octan-3-yl)-2-(((2R, 7aS)-2-fluorotetrahydro-1H-pyrrolizin-7a(5H)-yl)methoxy)quinazolin-7-yl)-5-ethynyl-6-fluoronaphthalen-2-ol] | 318 nM
 | Oc1cc2c(c(-c3ccc4c(N5C[C@H]6CC[C@@H](C5)N6)nc(OC[C@@]56CCCN5C[C@H](F)C6)nc4c3F)c1)CCCC2 [Example 420, 4-(4-((1R,5S)-3,8-diazabicyclo[3.2.1]octan-3-yl)-8-fluoro-2-(((2R,7aS)-2-fluorotetrahydro-1H-pyrrolizin-7a(5H)-yl)methoxy)quinazolin-7-yl)-5,6,7,8-tetrahydronaphthalen-2-ol] | 60 nM
